The values that follow come from US20110060124A1, “HLA-BINDING PEPTIDES, PRECURSORS THEREOF, DNA FRAGMENTS AND RECOMBINANT VECTORS THAT CODE FOR THOSE PEPTIDE SEQUENCES” (priority 2004, published 2011).

Peptide text beside a SMILES is read from it.

In the assay the test system is HLA-A24 type molecule, product of the HLA-A*2402 gene. Kind of assay: Experiment of binding peptide to HLA-A24 type molecule (C1R-A24 cells, flow cytometry, Kd). The arrangement: species or system human. The following applies: −log Kd value. For orientation: A flow cytometer gives signals particle by particle.
Method: After neutralization, purified β2m was added to C1R-A24 cells, and the obtained product was added to serial dilutions of a peptide, and incubated on ice for 4 hours.
Subsequently, the MHC-pep count per C1R-A24 cell (proportional to the strength of fluorescence of the above-mentioned fluorescent antibody) was quantitatively measured using an FACScan fluorescence-activated cell sorter (Becton Dickinson Biosciences). A binding dissociation constant Kd value between the HLA-A24 type molecule and the peptide was calculated from the average strength of fluorescence per cell by a published method (Udaka et al., Immunogenetics, 51, 816-828, 2000).
Regarding `CC[C@H](C)[C@H](NC(=O)[C@@H]1CCCN1C(=O)[C@H](CC(=O)O)NC(=O)[C@H](Cc1ccccc1)NC(=O)[C@H](CO)NC(=O)[C@H](CC(=O)O)NC(=O)[C@H](CC(C)C)NC(=O)[C@@H](NC(=O)[C@@H](N)C(C)C)[C@@H](C)CC)C(=O)O` [SEQ ID NO: 2] (H-VILDSFDPI-OH; N-terminus and C-terminus assumed), the binding experimental value is 5.324.
As for `CC[C@H](C)[C@H](N)C(=O)N[C@H](C(=O)N[C@@H](Cc1ccc(O)cc1)C(=O)N[C@@H](CO)C(=O)N[C@H](C(=O)N[C@@H](Cc1ccc(O)cc1)C(=O)N[C@@H](CS)C(=O)N[C@@H](CCCCN)C(=O)N[C@@H](Cc1ccccc1)C(=O)O)[C@@H](C)O)[C@@H](C)O` [SEQ ID NO: 40] (H-ITYSTYCKF-OH; N-terminus and C-terminus assumed), the binding experimental value was found to be 6.975.
`CC[C@H](C)[C@H](N)C(=O)N[C@H](C(=O)N[C@@H](Cc1ccc(O)cc1)C(=O)N[C@@H](CO)C(=O)N[C@H](C(=O)N[C@@H](Cc1ccc(O)cc1)C(=O)NCC(=O)N[C@@H](CCCCN)C(=O)N[C@@H](Cc1ccccc1)C(=O)O)[C@@H](C)O)[C@@H](C)O` [SEQ ID NO: 107] (H-ITYSTYGKF-OH; N-terminus and C-terminus assumed) displayed a binding experimental value of 6.374.
